In patent US9422226B2 (Biogen MA Inc., priority 2011, dated 2016):
Where a name gives a salt, the structure may show the parent alone. Read-outs that look alike come from different tables or passages of the source.

Assays:
[1] = Methanolysis of dimethyl sulfate, 1H NMR kinetics; assay type: physicochemical; settings: 65° C., 1.5 mole % DMS in dry methanol
Procedure: Solutions of 1.5 mole % DMS and methanol were heated in a sealed tube to 35° C. and the time-dependent NMR spectra were collected for these mixtures. […] Use of NMR data helped confirm the reaction mechanism proposed in Scheme 2.
The reaction proceeded more slowly at 35° C. but clearly confirms the formation of dimethyl ether (DME). The gradual downfield shift of the exchangeable OH resonance (4.8 ppm) supports the generation of a strong acid i.e., MMS (Scheme 5). Another set of duplicate experiments were performed under the reaction conditions at 65° C. (again spiking 1.5 mole % DMS into dry methanol with <0.01% water and no sulfuric acid) and monitoring the reaction for 60 minutes. This reaction was considered to be essentially irreversible under nominal plant process conditions since the reaction vessels are not pressurized and the resultant dimethyl ether would bubble out of solution.

[2] = Hydrolysis of dimethyl sulfate, water spiking, 1H NMR kinetics; assay type: physicochemical; settings: 65° C., water 10.5, 14.0, 17.7 mole % in DMS-methanol
Procedure: The hydrolysis rate of dimethyl sulfate was determined by spiking known amounts of water into a mixture of DMS and methanol. Water was spiked into DMS-methanol solutions at three different levels—10.5, 14.0, and 17.7 mole % equivalents. The reactions were monitored for 60 minutes at 65° C. and the DMS peak integrals obtained.
The rate constant for the hydrolysis of DMS (k−2) was derived by fitting all the data to a DynoChem model that used the time-dependant peak integral data.

[3] = Formation of monomethyl sulfate from sulfuric acid and methanol, 1H NMR kinetics; assay type: physicochemical; settings: 65° C., dry methanol and concentrated sulfuric acid; ±7% RSD
Procedure: All ^1H NMR spectra were obtained in and referenced against DMSO-d6 at 2.5 ppm using a Varian 500 MHz NMR. Concentrated sulfuric acid, fumaric acid, and dimethyl fumarate were obtained from the Sigma-Aldrich Chemical Company. Authentic standards of MMS (Na salt) and DMS were also obtained from Sigma-Aldrich. For spiking identification purposes, an authentic sample of MMS was prepared by passing a methanolic solution of the commercially available sodium salt through Amberlite FPA 22 resin (H form, 10 molar equivalents), and concentrating to an oil on a flash evaporator.
All small scale reactions performed in the study were magnetically stirred and carried out using an insulated oil bath maintained at 65 deg±1° C. […]
Sampling of reactions involved removal of a minimum of 150-400 μL of reaction solution, addition to DMSO-d6 (lock solvent) as required to make up a 650 μL solution in each NMR tube. Samples were chilled in an ice/water bath, and analyzed within 5-10 minutes of their preparation. […]
Dry methanol (<0.01% water) was mixed with concentrated dry sulfuric acid and heated to 65° C. […] Equilibrium was reached within 1 hour, resulting in an essentially quantitative conversion of sulfuric acid to monomethyl sulfate. […] The second-order forward rate constant (k1) for the formation of MMS at 65° C. was determined to be 6.4×10^−5 L/mol-sec with a confidence interval of ±7% RSD.

[4] = Hydrolysis of monomethyl sulfate, water spiking, 1H NMR; assay type: physicochemical
Procedure: The rate constant of this reaction was measured by spiking water into solutions containing MMS (1.5 mole %) and monitoring the heated, sealed, vessel by ^1H NMR for 45 hours. Water was spiked into the matrix at two different levels—6 mole % and 12 mole %. […] In order to develop the larger model, the MMS equilibrium constant K (k1/k−1) was assigned a value of 999:1 in favor of the forward reaction, thus conservatively defining k−1 as 6.4×10^−8 L/mol-sec.

[5] = cited from earlier work; for rate constant for the hydrolysis of MMS, extrapolated: at 25° C.
[6] = high doses; cited from earlier work
[7] = Particle size of dimethyl fumarate by laser diffraction during and after drying; assay type: physicochemical
Procedure: The particle sizes reported here are based on a measured distribution. In one embodiment, the particle sizes are measured using a Laser Diffraction technique that correlates light scattering to particle volume on which “effective length or effective diameter” is calculated. The distribution is based on a measurement of thousands of particles. Particles samples can be in dry form or in slurry. In one embodiment, the instrument used to determine particle size/distribution is a Beckman Coulter LS230 or a Malvern Mastersizer.
The effect of temperature, pressure, and drying time on particle size was also investigated. […] Development studies examined the extent of sublimation under the drying conditions employed in the manufacturing plant. The first 3 entries in Table 5 are lab samples collected after 7, 24, and 48 hours drying time. The result from the three lab samples confirms that drying has no effects on the particle size. The particle size of lab samples were also compared to two representative plant samples which were dried for 48 hours and 72 hours. There is no change in particle size during drying.

[8] = Lab crystallization experiments with different cooling rates, mean particle size; assay type: physicochemical; settings: isolated from the reaction mixture prior to milling
Procedure: In the current process the mixture was cooled from reaction temperature 65° C. to the end temperature 20-25° C. in about 8 hours, stirred for 1-2 hours, and filtered to isolate the product.
Table 2 highlights results from laboratory crystallization experiments with cooling rates chosen within manufacturing equipment capabilities.

[9] = Mean particle size before and after jet milling; assay type: physicochemical
Excerpt: These particles were milled to produce particles of a suitable size for consistent handling and uniformity for drug product processing. The target specification for particle size is ≧97% of the particles <250 μm. The dimethyl fumarate drug substance was milled consistently to meet this specification using a jet mill. […] It is evident that the milling operation is capable of producing a drug substance of suitable quality.

[10] = test system: Ehrlich solid tumor cells; settings: in mice; cited from earlier work
[11] = test system: serum proteins; settings: cited from earlier work

COS(=O)(=O)OC [DMS, dimethyl sulfate]
rate constant for the methanolysis of DMS (k3) [1]: 4.1e-05 M⁻¹ s⁻¹
rate constant for the hydrolysis of DMS (k−2) [2]: 0.00023 M⁻¹ s⁻¹

COS(=O)(=O)O [MMS, monomethyl sulfate]
second-order forward rate constant (k1) for the formation of MMS [3]: 6.4e-05 M⁻¹ s⁻¹
MMS level after water spiking ([4]; MMS 1.5 mole %, water 6 and 12 mole %, heated sealed vessel, 45 hours): virtually unchanged
hydrolysis rate constant k−1 ([4]; from K (k1/k−1) assigned 999:1, conservative): 6.4e-08 M⁻¹ s⁻¹
equilibrium constant for the hydrolysis of monomethyl sulfate ([5]; T=100° C. to 150° C., sulfuric acid 1-4 M): 0.027 M⁻¹
rate constant for the hydrolysis of MMS, extrapolated ([5]; 1M HCl, T=40° C. to 100° C.): 1.7e-08 M⁻¹ s⁻¹
rate constant for the hydrolysis of MMS, extrapolated ([5]; pH=3 to 10, T=100° C. to 190° C.): 2.2e-11 M⁻¹ s⁻¹

O=C(O)/C(O)=C(\O)C(=O)O [dihydroxy fumaric acid]
side effects and toxicity [6]: high toxicity

COC(=O)/C=C/C(=O)OC [dimethyl fumarate]
Particle Size by Laser Diffraction, D10 ([7]; drying time 7 h (lab)): 328 μm
Particle Size by Laser Diffraction, D50 ([7]; drying time 7 h (lab)): 566 μm
Particle Size by Laser Diffraction, D90 ([7]; drying time 7 h (lab)): 850 μm
Particle Size by Laser Diffraction, D97 ([7]; drying time 7 h (lab)): 987 μm
Particle Size by Laser Diffraction, Mean ([7]; drying time 7 h (lab)): 524 μm
Particle Size by Laser Diffraction, D10 ([7]; drying time 24 h (lab)): 323 μm
Particle Size by Laser Diffraction, D50 ([7]; drying time 24 h (lab)): 562 μm
Particle Size by Laser Diffraction, D90 ([7]; drying time 24 h (lab)): 843 μm
Particle Size by Laser Diffraction, D97 ([7]; drying time 24 h (lab)): 979 μm
Particle Size by Laser Diffraction, Mean ([7]; drying time 24 h (lab)): 521 μm
Particle Size by Laser Diffraction, D10 ([7]; drying time 48 h (lab)): 340 μm
Particle Size by Laser Diffraction, D50 ([7]; drying time 48 h (lab)): 567 μm
Particle Size by Laser Diffraction, D90 ([7]; drying time 48 h (lab)): 845 μm
Particle Size by Laser Diffraction, D97 ([7]; drying time 48 h (lab)): 980 μm
Particle Size by Laser Diffraction, Mean ([7]; drying time 48 h (lab)): 535 μm
Particle Size by Laser Diffraction, D10 ([7]; drying time 48 h (plant)): 332 μm
Particle Size by Laser Diffraction, D50 ([7]; drying time 48 h (plant)): 561 μm
Particle Size by Laser Diffraction, D90 ([7]; drying time 48 h (plant)): 828 μm
Particle Size by Laser Diffraction, D97 ([7]; drying time 48 h (plant)): 956 μm
Particle Size by Laser Diffraction, Mean ([7]; drying time 48 h (plant)): 536 μm
Particle Size by Laser Diffraction, D10 ([7]; drying time 72 h (plant)): 327 μm
Particle Size by Laser Diffraction, D50 ([7]; drying time 72 h (plant)): 562 μm
Particle Size by Laser Diffraction, D90 ([7]; drying time 72 h (plant)): 834 μm
Particle Size by Laser Diffraction, D97 ([7]; drying time 72 h (plant)): 963 μm
Particle Size by Laser Diffraction, Mean ([7]; drying time 72 h (plant)): 524 μm
Mean Particle Size ([8]; cooling rate 5° C./h): 475 μm
Mean Particle Size ([8]; cooling rate 8° C./h): 448 μm
Mean Particle Size ([8]; cooling rate 15° C./h): 475 μm
Mean Particle Size ([9]; after jet milling): 20-40 μm
Mean Particle Size ([9]; isolated from the dryer, before milling): 550-650 μm

NC(=O)/C=C/C(N)=O [fumaramide]
side effects and toxicity [6]: high toxicity

O=C(O)/C=C/C(=O)O [fumaric acid]
growth of Ehrlich solid tumor cells [10]: impede the growth

N#C/C=C/C#N [fumaronitrile]
side effects and toxicity [6]: high toxicity

COC(=O)/C=C/C(=O)O [methyl hydrogen fumarate]
bound by serum proteins [11]: 30%
